Experimental data: patent US12077503B2, “Substituted cyclic amides and their use as herbicides” (FMC CORPORATION, priority 2015, dated 2024)

Experiments:
Format in all cases: in vivo
Kochia (Kochia scoparia) [1] = test: Test A preemergence; conditions: for Plant response rating, Kochia: 125 g ai/ha, preemergence, 0 to 100 scale (0 no effect, 100 complete control); for Kochia plant response rating (0 to 100 scale, 0 is no effect, 100 is complete control): Preemergence, 500 g ai/ha, visual injury approx. 10 d
Method in brief: (§1)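 Each rating is a visual injury score from 0 to 100 given about 10 d after treatment, judged against untreated controls kept alongside in the greenhouse. In loam soil–sand blend, seeds got a preemergence directed soil spray, while postemergence plants were 2 to 10 cm tall at spraying.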

[2] = system: barnyardgrass (Echinochloa crus-galli); test: Test A preemergence; conditions: for Plant response rating, Barnyardgrass: 125 g ai/ha, preemergence, 0 to 100 scale (0 no effect, 100 complete control); for Barnyardgrass plant response rating (0 to 100 scale, 0 is no effect, 100 is complete control): Preemergence, 500 g ai/ha, visual injury approx. 10 d
Method in brief: as §1

[3] = system: giant foxtail (Setaria faberii); test: Test A preemergence; conditions: for Plant response rating, Foxtail, Giant: 125 g ai/ha, preemergence, 0 to 100 scale (0 no effect, 100 complete control); for Foxtail, Giant plant response rating (0 to 100 scale, 0 is no effect, 100 is complete control): Preemergence, 500 g ai/ha, visual injury approx. 10 d
Method in brief: as §1

[4] = system: pigweed (Amaranthus retroflexus); test: Test A preemergence; conditions: for Plant response rating, Pigweed: 125 g ai/ha, preemergence, 0 to 100 scale (0 no effect, 100 complete control); for Pigweed plant response rating (0 to 100 scale, 0 is no effect, 100 is complete control): Preemergence, 500 g ai/ha, visual injury approx. 10 d
[5] = system: ragweed (common ragweed, Ambrosia elatior); test: Test A preemergence; conditions: for Plant response rating, Ragweed: 125 g ai/ha, preemergence, 0 to 100 scale (0 no effect, 100 complete control); for Ragweed plant response rating (0 to 100 scale, 0 is no effect, 100 is complete control): Preemergence, 500 g ai/ha, visual injury approx. 10 d
Method in brief: as §1

[6] = system: ryegrass, Italian (Italian ryegrass, Lolium multiflorum); test: Test A preemergence; conditions: for Plant response rating, Ryegrass, Italian: 125 g ai/ha, preemergence, 0 to 100 scale (0 no effect, 100 complete control); for Ryegrass, Italian plant response rating (0 to 100 scale, 0 is no effect, 100 is complete control): Preemergence, 500 g ai/ha, visual injury approx. 10 d
Method in brief: as §1

[7] = system: Galium (catchweed bedstraw, Galium aparine); test: Test A postemergence; conditions: postemergence; for Galium plant response rating: 125 g ai/ha, visual injury rating on 0 to 100 scale (0 no effect, 100 complete control), approx. 10 d; for Plant response rating, Galium: 500 g ai/ha, 0 to 100 scale, 0 no effect, 100 complete control
Method in brief: as §1

Kochia (Kochia scoparia) [8] = test: Test A postemergence; conditions: postemergence; for Kochia plant response rating: 125 g ai/ha, visual injury rating on 0 to 100 scale (0 no effect, 100 complete control), approx. 10 d; for Plant response rating, Kochia: 500 g ai/ha, 0 to 100 scale, 0 no effect, 100 complete control
Method in brief: as §1

[9] = system: barnyardgrass (Echinochloa crus-galli); test: Test A postemergence; conditions: postemergence; for Barnyardgrass plant response rating: 125 g ai/ha, visual injury rating on 0 to 100 scale (0 no effect, 100 complete control), approx. 10 d; for Plant response rating, Barnyardgrass: 500 g ai/ha, 0 to 100 scale, 0 no effect, 100 complete control
Method in brief: as §1

[10] = system: blackgrass (Alopecurus myosuroides); test: Test A postemergence; conditions: postemergence; for Blackgrass plant response rating: 125 g ai/ha, visual injury rating on 0 to 100 scale (0 no effect, 100 complete control), approx. 10 d; for Plant response rating, Blackgrass: 500 g ai/ha, 0 to 100 scale, 0 no effect, 100 complete control
Method in brief: as §1

corn (Zea mays) = test: Test A postemergence; conditions: postemergence; for Corn plant response rating: 125 g ai/ha, visual injury rating on 0 to 100 scale (0 no effect, 100 complete control), approx. 10 d; for Plant response rating, Corn: 500 g ai/ha, 0 to 100 scale, 0 no effect, 100 complete control
Method in brief: as §1

[11] = system: giant foxtail (Setaria faberii); test: Test A postemergence; conditions: postemergence; for Foxtail, Giant plant response rating: 125 g ai/ha, visual injury rating on 0 to 100 scale (0 no effect, 100 complete control), approx. 10 d; for Plant response rating, Foxtail, Giant: 500 g ai/ha, 0 to 100 scale, 0 no effect, 100 complete control
Method in brief: as §1

[12] = system: pigweed (Amaranthus retroflexus); test: Test A postemergence; conditions: postemergence; for Pigweed plant response rating: 125 g ai/ha, visual injury rating on 0 to 100 scale (0 no effect, 100 complete control), approx. 10 d; for Plant response rating, Pigweed: 500 g ai/ha, 0 to 100 scale, 0 no effect, 100 complete control
Method in brief: as §1

[13] = system: ragweed (common ragweed, Ambrosia elatior); test: Test A postemergence; conditions: postemergence; for Ragweed plant response rating: 125 g ai/ha, visual injury rating on 0 to 100 scale (0 no effect, 100 complete control), approx. 10 d; for Plant response rating, Ragweed: 500 g ai/ha, 0 to 100 scale, 0 no effect, 100 complete control
Method in brief: as §1

[14] = system: ryegrass, Italian (Italian ryegrass, Lolium multiflorum); test: Test A postemergence; conditions: postemergence; for Ryegrass, Italian plant response rating: 125 g ai/ha, visual injury rating on 0 to 100 scale (0 no effect, 100 complete control), approx. 10 d; for Plant response rating, Ryegrass, Italian: 500 g ai/ha, 0 to 100 scale, 0 no effect, 100 complete control
Method in brief: as §1

[15] = system: wheat (Triticum aestivum); test: Test A postemergence; conditions: postemergence; for Wheat plant response rating: 125 g ai/ha, visual injury rating on 0 to 100 scale (0 no effect, 100 complete control), approx. 10 d; for Plant response rating, Wheat: 500 g ai/ha, 0 to 100 scale, 0 no effect, 100 complete control
Method in brief: as §1

[16] = system: barnyardgrass (Echinochloa crus-galli); test: Test B flooded paddy test; conditions: Flood, 250 g ai/ha; 0 to 100 scale where 0 is no effect and 100 is complete control; 13 to 15 d
Method in brief: (§2)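 Percent control, visually estimated after 13–15 d in the greenhouse on a 0–100 basis, compares treated pots with untreated ones; compound was put into paddy water 3 cm above the soil when plants had two leaves.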

[17] = system: ducksalad (Heteranthera limosa); test: Test B flooded paddy test; conditions: Flood, 250 g ai/ha; 0 to 100 scale where 0 is no effect and 100 is complete control; 13 to 15 d
Method in brief: as §2

rice (Oryra sativa) = test: Test B flooded paddy test; conditions: Flood, 250 g ai/ha; 0 to 100 scale where 0 is no effect and 100 is complete control; 13 to 15 d
Method in brief: as §2

[18] = system: sedge, umbrella (small-flower umbrella sedge, Cyperus difformis); test: Test B flooded paddy test; conditions: Flood, 250 g ai/ha; 0 to 100 scale where 0 is no effect and 100 is complete control; 13 to 15 d
Method in brief: as §2

SMILES	Plant response rating, Kochia (Kochia (Kochia scoparia) [1])	Kochia plant response rating (0 to 100 scale, 0 is no effect, 100 is complete control) (Kochia (Kochia scoparia) [1])	Plant response rating, Barnyardgrass [2]	Barnyardgrass plant response rating (0 to 100 scale, 0 is no effect, 100 is complete control) [2]	Plant response rating, Foxtail, Giant [3]	Foxtail, Giant plant response rating (0 to 100 scale, 0 is no effect, 100 is complete control) [3]	Plant response rating, Pigweed [4]	Pigweed plant response rating (0 to 100 scale, 0 is no effect, 100 is complete control) [4]	Plant response rating, Ragweed [5]	Ragweed plant response rating (0 to 100 scale, 0 is no effect, 100 is complete control) [5]	Plant response rating, Ryegrass, Italian [6]	Ryegrass, Italian plant response rating (0 to 100 scale, 0 is no effect, 100 is complete control) [6]	Galium plant response rating [7]	Plant response rating, Galium [7]	Kochia plant response rating (Kochia (Kochia scoparia) [8])	Plant response rating, Kochia (Kochia (Kochia scoparia) [8])	Barnyardgrass plant response rating [9]	Plant response rating, Barnyardgrass [9]	Blackgrass plant response rating [10]	Plant response rating, Blackgrass [10]	other results
CN1CC(c2ccc(F)cc2)C(C(=O)Nc2cccc(F)c2F)C1=O (stereo not drawn) [Compound 438]	70	80	90	100	100	100	80	90	60	90	50	70	40	50	70	70	90	90	40	70	Corn plant response rating (corn (Zea mays)): 0; Plant response rating, Corn (corn (Zea mays)): 50; Foxtail, Giant plant response rating [11]: 90; Plant response rating, Foxtail, Giant [11]: 90; Pigweed plant response rating [12]: 0; Plant response rating, Pigweed [12]: 60; Ragweed plant response rating [13]: 0; Plant response rating, Ragweed [13]: 30; Ryegrass, Italian plant response rating [14]: 40; Plant response rating, Ryegrass, Italian [14]: 60; Wheat plant response rating [15]: 30; Plant response rating, Wheat [15]: 70; Plant response rating, Barnyardgrass [16]: 85; Plant response rating, Ducksalad [17]: 100; Plant response rating, Rice (rice (Oryra sativa)): 20; Plant response rating, Sedge, Umbrella [18]: 0
CN1CC(c2ccc(F)cc2)C(C(=O)Nc2ccc(F)cc2F)C1=O (stereo not drawn) [Compound 440]	60	70	90	100	90	100	20	80	20	40	0	50	40	40	30	40	90	90	30	50	Corn plant response rating (corn (Zea mays)): 0; Plant response rating, Corn (corn (Zea mays)): 20; Foxtail, Giant plant response rating [11]: 90; Plant response rating, Foxtail, Giant [11]: 90; Pigweed plant response rating [12]: 0; Plant response rating, Pigweed [12]: 20; Ragweed plant response rating [13]: 0; Plant response rating, Ragweed [13]: 0; Ryegrass, Italian plant response rating [14]: 0; Plant response rating, Ryegrass, Italian [14]: 60; Wheat plant response rating [15]: 0; Plant response rating, Wheat [15]: 50; Plant response rating, Barnyardgrass [16]: 70; Plant response rating, Ducksalad [17]: 95; Plant response rating, Rice (rice (Oryra sativa)): 0; Plant response rating, Sedge, Umbrella [18]: 0
CN1CC(c2ccc3c(c2)OC(F)(F)O3)C(C(=O)Nc2cccc(F)c2F)C1=O (stereo not drawn) [Compound 442]	80	90	90	90	90	90	70	80	20	60	60	80	60	60	20	60	80	90	60	70	Corn plant response rating (corn (Zea mays)): 50; Plant response rating, Corn (corn (Zea mays)): 70; Foxtail, Giant plant response rating [11]: 80; Plant response rating, Foxtail, Giant [11]: 80; Pigweed plant response rating [12]: 60; Plant response rating, Pigweed [12]: 70; Ragweed plant response rating [13]: 0; Plant response rating, Ragweed [13]: 40; Ryegrass, Italian plant response rating [14]: 60; Plant response rating, Ryegrass, Italian [14]: 80; Wheat plant response rating [15]: 40; Plant response rating, Wheat [15]: 70; Plant response rating, Barnyardgrass [16]: 75; Plant response rating, Ducksalad [17]: 100; Plant response rating, Rice (rice (Oryra sativa)): 0; Plant response rating, Sedge, Umbrella [18]: 0
